# According to patent US7709548B2, “Method for manufacturing monosulfonium salt, cationic polymerization initiator, curable composition, and cured product” (San-Apro Limited, priority 2003, dated 2010):
# Experiment: Storage stability test (viscosity change of mixture with UVR-6110 stored at 80° C.)
# Assay type: physicochemical
# Details: measured at 25° C.; for Viscosity after storage for 1 week / Viscosity after storage for 2 weeks / Viscosity after storage for 4 weeks / Viscosity after storage for 6 weeks: stored at 80° C.
# Method: As an acceleration test for storage stability, a mixture of the cationic polymerization initiator solution and a cationic polymerizable compound was evaluated by measuring its change in the viscosity when stored at a temperature of 80° C.
# 5 parts of a propylene carbonate solution of the cationic polymerization initiators used in each of Test Examples 5 and 9 was added to 100 parts UVR-6110 (the alicyclic epoxy resin, supra), and 200 g of this mixture was put in a 250 mL brown plastic bottle and stored in an 80° C. thermostat.
# 3 parts of a propylene carbonate solution of the cationic polymerization initiator used in each of Test Examples 12 and 15 were mixed with 100 parts UVR-6110, and 200 g of this mixture taken in a 250 ml brown plastic bottle and stored in an 80° C. thermostat.
# The above-mentioned mixture was adjusted to 25° C. in a thermostatic tank that had been adjusted to 25° C., and the viscosity of the mixture was measured at the start of storage and after one, two, four, and six weeks.
# [1] = 5 parts initiator solution per 100 parts UVR-6110
# [2] = 3 parts initiator solution per 100 parts UVR-6110
Compound,"Viscosity after storage, At start [1]",Viscosity after storage for 1 week [1],Viscosity after storage for 2 weeks [1],Viscosity after storage for 4 weeks [1],Viscosity after storage for 6 weeks [1],"Viscosity after storage, At start [2]",Viscosity after storage for 1 week [2],Viscosity after storage for 2 weeks [2],Viscosity after storage for 4 weeks [2],Viscosity after storage for 6 weeks [2]
"F[P-](F)(F)(F)(F)F.c1ccc(Sc2ccc([S+](c3ccccc3)c3ccccc3)cc2)cc1 [Example 5, (4-phenylthiophenyl)diphenylsulfonium hexafluorophosphonate]",480 mPa · s,480 mPa · s,480 mPa · s,500 mPa · s,500 mPa · s,,,,,
(4-phenylthiophenyl)diphenylsulfonium hexafluoroantimonate [Example 8],,,,,,470 mPa · s,470 mPa · s,470 mPa · s,510 mPa · s,650 mPa · s
